Where a name gives a salt, the structure may show the parent alone.
What was measured:
[1] = target: T1, V2 Recepter (rat kidney plasma membrane preparations) (Rattus norvegicus, UniProt Q00788); experiment: V2 Recepter binding assay; conditions: [3H]-Arg-vasopressin 4×10^-10 M, 4° C., pH 8.0, rat kidney plasma membrane
T1 construct: rat kidney plasma membrane preparations; from tissue; host or cells: rat kidney plasma membranes
Outline: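 Rat kidney plasma membranes incubated with [^3H]-Arg-vasopressin (4×10^-10 M) and test compound (10^-10 to 10^-5 M) for 3 h at 4 °C in 100 mM Tris-HCl pH 8.0 with 5 mM MgCl2, 1 mM EDTA, 0.1% BSA. Bound label by filtration and scintillation counting; nonspecific binding with 10^-6 M vasopressin; IC50 reported.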

[2] = target: T2, Oxytocin receptor (uterin muscle membrane preparation) (Rattus norvegicus, UniProt P70536); experiment: Oxytocin receptor binding assay; conditions: [3H]-oxytocin 10^-9 M, 25°, one hour, pH 8.0, uterin muscle membrane, DES-treated
T2 construct: was homogenized, which was used as a membrane; from tissue; host or cells: uterine muscle membranes from diethylstilbestrol-treated animals
T2 sequence (P70536 1-388): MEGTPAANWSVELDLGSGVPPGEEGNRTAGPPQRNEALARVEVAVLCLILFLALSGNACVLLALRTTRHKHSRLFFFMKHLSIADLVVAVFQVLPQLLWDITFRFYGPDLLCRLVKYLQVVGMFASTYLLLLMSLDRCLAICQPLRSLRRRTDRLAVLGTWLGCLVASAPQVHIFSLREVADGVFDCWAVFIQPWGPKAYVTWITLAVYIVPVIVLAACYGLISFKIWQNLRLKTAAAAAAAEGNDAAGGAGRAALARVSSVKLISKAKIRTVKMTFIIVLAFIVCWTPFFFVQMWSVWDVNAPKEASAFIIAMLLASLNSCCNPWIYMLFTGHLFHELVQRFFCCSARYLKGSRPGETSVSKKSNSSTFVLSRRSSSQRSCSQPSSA
Outline: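 Rat uterine membranes (0.2 mg; DES-primed day before) incubated 1 h at 25° with [3H]-oxytocin (10^-9 M) and compound (10^-9 to 10^-5 M) in 100 mM Tris-HCl pH 8.0, 5 mM MgCl2, 1 mM EDTA, 0.1% BSA. Filter-bound radioactivity counted; nonspecific with 5×10^-6 M oxytocin; IC50 reported.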

[3] = target: T3, V1 Recepter (rat liver plasma membrane preparations) (Rattus norvegicus, UniProt P30560); experiment: V1 Recepter binding assay; conditions: [3H]-Arg-vasopressin 2×10^-10 M, 37° C., 10 minutes, pH 8.0, rat liver plasma membrane
T3 construct: rat liver plasma membrane preparations; from tissue; host or cells: rat liver plasma membranes
T3 sequence (P30560 whole entry): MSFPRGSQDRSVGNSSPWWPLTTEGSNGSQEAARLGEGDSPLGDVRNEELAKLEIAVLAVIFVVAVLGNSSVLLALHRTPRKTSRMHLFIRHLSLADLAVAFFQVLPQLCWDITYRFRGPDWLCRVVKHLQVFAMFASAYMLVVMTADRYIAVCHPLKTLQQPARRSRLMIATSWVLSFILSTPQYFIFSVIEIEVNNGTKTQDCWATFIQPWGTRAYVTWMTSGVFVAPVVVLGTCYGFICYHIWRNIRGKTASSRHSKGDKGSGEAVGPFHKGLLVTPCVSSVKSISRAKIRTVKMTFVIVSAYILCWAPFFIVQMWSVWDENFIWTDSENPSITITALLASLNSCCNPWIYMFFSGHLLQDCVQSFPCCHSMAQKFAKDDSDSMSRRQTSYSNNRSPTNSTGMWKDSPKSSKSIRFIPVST
Outline: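 Rat liver plasma membranes incubated with [3H]-Arg-vasopressin (2×10^-10 M) and compound (10^-8 to 10^-4 M) for 10 min at 37° C in Tris-HCl pH 8.0 with MgCl2, EDTA, BSA. Bound label separated by glass-fibre filtration, scintillation counted; nonspecific binding with 10^-6 M vasopressin; IC50 reported.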

[4] = Anti-antiduretic water diuretic activity in vivo; conditions: oral, male SD-rats, first 2 hours, vs control group; read-out: ED3 (oral dose required to increase the amount of urine excreted for the first 2 hours)
Experimental: Test-4: Anti-antiduretic water diuretic/activity in vivo
The test compound of the present invention was dissolved in polyethylene glycol 400 or water or suspended in 5% gum arabic aqueous solution, and the mixture was orally administered by force to male SD-rats (body weight: 300 to 400 g) under untreated and unrestrained. After administration the rats were kept in a metabolism cage and the amount of urine spontaneously excreted by the rats was measured at 2 hours' interval, during which the rats could freely be given feed and water.
In the cotrol group, a solvent was administered instead of a test compound solution (or suspension).
The test results are expressed as ED3, which is the oral dose of the test compound which is required to increase the amount of the urine excreted from the rat in the test compound-treated group for the first 2 hours by time based on the amount of urine excreted from the rat for the first 2 hours in the control group.

[5] = system: increase in the diastolic pressure caused by vasopressin; experiment: Vasopressin antagonistic activity in vivo; conditions: Rattus norvegicus; oral, awake male SD-rats, vasopressin 30 mU/kg i.v.; read-out: ID50 (oral dose required to achieve 50% inhibitory effect on increase in diastolic pressure)
Experimental: Test-3: Vasopressin antagonistic activity in vivo
In order to test the vasopressin antagonistic activity of the compound of the present invention when admistered orally to rats under awaking, the following experiment was conducted. Cannulas were inserted into the aorta abdominalis and the carotid arteries of male SD-rats (body weight: 300-450 g) under pentobarbital-anesthetization. A few days thereafter, vasopressin (30 mU/kg) was administered intravenously to the rats under awaking with measuring the blood pressure at the cannula inserted into the arorta abdominalis by a piezo-electric transducer. The test compound was dissolved in polyethylene glycol or water, or suspended in 5% gum arabic solution, and orally administered by force to the rats.
The increase in the diastolic pressure of the rat was periodically mesured at 30 minutes' interval after the administration of vasopressin for 8 hours. The rate of inhibitory effect (%) of the test compound on the increase in the diastolic pressure caused by vasopressin (30 mU/kg) was calculated based on the increase in the diastolic pressure when vasopressin (30 mU/kg) was intravenously administered without a test compound.
The test result is expressed as ID50 value, which is the oral dose of the test compound required to achieve the inhibitory effect in the rate of 50% and is shown in Table 158 as follows: […]

T1 sequence (Q00788 whole entry): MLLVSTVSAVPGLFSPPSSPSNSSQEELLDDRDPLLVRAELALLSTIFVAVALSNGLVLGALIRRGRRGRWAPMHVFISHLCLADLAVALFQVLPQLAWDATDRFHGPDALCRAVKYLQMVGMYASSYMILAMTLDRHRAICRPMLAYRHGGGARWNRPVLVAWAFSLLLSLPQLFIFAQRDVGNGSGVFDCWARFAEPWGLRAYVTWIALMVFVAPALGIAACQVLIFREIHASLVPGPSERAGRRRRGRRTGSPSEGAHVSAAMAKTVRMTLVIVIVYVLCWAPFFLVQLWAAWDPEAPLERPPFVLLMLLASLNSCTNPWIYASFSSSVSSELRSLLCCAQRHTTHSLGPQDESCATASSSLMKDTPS

IC50 [1]	IC50 [2]	IC50 [3]	Structure (SMILES)	ED (3-fold) [4]	ED50 [5]
49 nM	72 nM	20 nM	CNC(=S)NCCOC1CCCN(C(=O)c2ccc(NC(=O)c3ccccc3Cl)cc2OC)c2ccc(Cl)cc21 (centres unmarked) [Example 133, 5-(2-Methylaminothiocarbonylaminoethoxy)-7-chloro-1-[2-methoxy-4-(2-chlorobenzoylamino)benzoyl]-2,3,4,5-tetrahydro-1H-benzoazepine]		
10 nM	100 nM	23 nM	C=CCN1CCN(C(=O)CC2CCCN(C(=O)c3ccc(NC(=O)c4ccccc4Cl)cc3OC)c3ccc(Cl)cc32)CC1 (centres unmarked) [Example 81, 5-(4-Allyl-1-piperazinyl)carbonylmethyl-7-chloro-1-[2-methoxy-4-(2-chlorobenzoylamino)benzoyl]-2,3,4,5-tetrahydro-1H-benzoazepine]		
2 nM	70 nM	7 nM	COc1cc(NC(=O)c2ccccc2Cl)ccc1C(=O)N1CCCC(CC(=O)N2CCN(CC(O)CNC(C)C)CC2)c2cc(Cl)ccc21 (centres unmarked) [Example 87, 5-[4-(2-Hydroxy-3-isopropylaminopropyl)-1-piperazinyl]carbonylmethyl-7-chloro-1-[2-methoxy-4-(2-chlorobenzoylamino)benzoyl]-2,3,4,5-tetrahydro-1H-benzoazepine]		
8.5 nM	41 nM	2.6 nM	COc1cc(C(=O)N2CCCC(CC(=O)NCCN3CCOCC3)c3cc(Cl)ccc32)ccc1NC(=O)c1ccccc1Br (centres unmarked) [Example 164, 5-(2-Morpholinoethyl)aminocarbonylmethyl-7-chlorolo-[3-methoxy-4-(2-bromobenzoylamino)-benzoyl]-2,3,4,5-tetrahydro-1H-benzoazepine]		
4.9 nM	146 nM	18 nM	COc1cc(NC(=O)c2ccccc2Cl)ccc1C(=O)N1CCCC(OCCNC(C)=N)c2cc(Cl)ccc21 (centres unmarked) [Example 135, 5-[2-(1-Iminoethyl)aminoethoxy]-7-chloro-1-[2-methoxy-4-(2-chlorobenzoylamino)benzoyl]-2,3,4,5-tetrahydro-1H-benzoazepine.cndot.hydrochloride]		
2 nM	58 nM	10 nM	COc1cc(NC(=O)c2ccccc2Cl)ccc1C(=O)N1CCCC(CC(=O)N(C)CCO)c2cc(Cl)ccc21 (centres unmarked) [Example 88, 5-[N-Methyl-N-(2-hydroxyethyl)amino]-carbonylmethyl-7-chloro-1-[2-methoxy-4-(2-chlorobenzoylamino)benzoyl]-2,3,4,5-tetrahydo-1H-benzoazepine]		
7 nM	416 nM	24 nM	C#CCNCCOC1CCCN(C(=O)c2ccc(NC(=O)c3ccccc3Cl)cc2OC)c2ccc(Cl)cc21 (centres unmarked) [Example 170, 5-(2-Propargylaminoethoxy)-7-chloro-1-[2-methoxy-4-(2-chlorobenzoylamino)benzoyl]-2,3,4,5-tetrahydro-1H-benzoazepine.cndot.hydrochloride]		
			COc1cc(NC(=O)c2ccccc2C)ccc1C(=O)N1CCCC(CC(=O)N2CCN(C)CC2)c2cc(Cl)ccc21 (centres unmarked) [Example 63, 5-[(4-Methyl-1-piperazinyl)carbonylmethyl]-7-chloro-1-[2-methoxy-4-(2-methylbenzoylamino)benzoyl]-2,3,4,5-tetrahydro-1H-benzoazepine]	3.2 mg/kg	3.4 mg/kg
19 nM	85 nM	10 nM	COc1cc(C(=O)N2CCCC(OCC(=O)NCCN3CCOCC3)c3cc(Cl)ccc32)ccc1NC(=O)c1ccccc1Br (centres unmarked) [Example 168, 5-(2-Morpholinoethyl)aminocarbonylmethoxy-7-chloro-1-[3-methoxy-4-(2-bromobenzoylamino)benzoyl]-2,3,4,5-tetrahydro-1H-benzoazepine]		
4 nM	32 nM	23 nM	COc1cc(NC(=O)c2ccccc2Cl)ccc1C(=O)N1CCCC(CC(=O)Nc2ccncc2)c2cc(Cl)ccc21 (centres unmarked) [Example 127, 5-(4-Pyridyl)aminocarbonylmethyl-7-chloro-1-[2-methoxy-4-(2-chlorobenzoylamino)benzoyl]-2,3,4,5-tetrahydro-1H-benzoazepine]		
4 nM	115 nM	18 nM	COc1cc(NC(=O)c2ccccc2Cl)ccc1C(=O)N1CCCC(CC(=O)NCCc2ccccn2)c2cc(Cl)ccc21 (centres unmarked) [Example 130, 5-[2-(2-Pyridyl)ethyl]aminocarbonylmethyl-7-chloro-1-[2-methoxy-4-(2-chlorobenzoylamino)benzoyl]-2,3,4,5-tetrahydro-1H-benzoazepine]		
